The source of these data is a melting point compilation (Tetko et al.; mined from patent text by program, amines drawn as free bases though some values may be those of a salt).

For orientation: melting point means the temperature, or range, at which the solid turns liquid. `CC1C(=O)NN(c2cc(Cl)cc(Cl)c2)C1=O` (configuration not stated) came in with a melting point of 95 to 100 °C.

In the case of `O=C1Cc2cc(C(=O)CCl)ccc2N1`, the melting point is 236 to 239 °C.

The compound `Cc1nnc(CN(C)C)n1-c1ccc(Br)cc1C(=O)c1ccccn1` displayed a melting point of 127 to 128 °C.

Compound `O=C(O)Cc1ccc2c(c1)CC(=O)c1ccccc1C2` returned a melting point of 163 to 165 °C.

`Cc1nc[nH]c1CSCCNC(N)=C[N+](=O)[O-]` had a melting point of 193 to 195 °C.

As for `NC(=O)c1c(F)ccc(OCc2ccc3sccc3c2)c1F`, the melting point was 146 to 148 °C.

Consider `NCc1cccc(OCc2nc(-c3ccc(Cl)cc3)cs2)c1`, for which the melting point fell in the range of 117 to 118 °C.

`CS(=O)(=O)Nc1cc2c(c(C(=O)O)c1)NCCC2` registered a melting point of 244 °C.

With `Cc1cc2c(cc1N1CCCCC1)OC(=O)C2C` (configuration not stated), the melting point lay in the range of 61 to 63 °C.

In turn, `COc1cc(Nc2nc3cccc(-c4cccc(NC(C)=O)c4)c3o2)cc(OC)c1OC` displayed a melting point of 170 to 172 °C.

In turn, `COc1ccc(OC)c(C2CC=CCC2[N+](=O)[O-])c1` (configuration not stated) showed a melting point of 73 to 75 °C.

`CC(C)(CO)n1cnc2c(N)nc3ccccc3c21` returned a melting point of 277 to 281 °C.

The compound `NCCOc1nc2ccccc2n1C1CCN(C2(c3ccccc3)CCCCCC2)CC1` had a melting point of 180 to 184 °C.

In turn, `CSc1nc2cc(Cl)c(Cl)cc2n1C1OC(CO)C(O)C1O` (configuration not stated) returned a melting point of 204 to 206 °C.

As for `CCOC1Cc2cc3ccc(=O)oc3c(OC)c2O1` (configuration not stated), the melting point is 119 to 120 °C.

Take `CC(C)(C)OC(=O)N1C(COc2noc3ccc(Cl)cc23)COC1(C)C` (configuration not stated): the melting point is 117 to 118 °C.

`C=CCS(=O)(=O)c1ccc(NN=C(C)C)cc1` registered a melting point of 105 to 108 °C.

Turning to `CC(=O)c1c(C)c(NC(=O)CC(C)(C)C)c(C)c2c1OCC2c1ccc(C(C)C)cc1` (configuration not stated), the melting point fell in the range of 176 to 177 °C.

In the case of `NC(=S)NN=C(CCCOC(=O)Nc1ccccc1)c1ccccc1`, the melting point is 140 to 142 °C.

In the case of `CNC(=O)c1cc(-c2ccc(F)cc2)c2c3c(ccc2n1)OCO3`, the melting point is 233 to 235 °C.

`CC1CN(c2ccc(Cl)cc2)N=C1NCC(F)(F)F` (configuration not stated) registered a melting point of 84 to 86 °C.

With `Nc1ccc(CP2(=O)OCCCO2)cc1`, the melting point was 172 to 173 °C.

`CCNc1cn(-c2cncc(F)c2)nc1C` registered a melting point of 85 to 86 °C.

For `CC(C)(C)[C@H]1CC[C@@H](Nc2nnc(CCc3cccnc3)c3ccccc23)CC1`, the melting point was 155 to 157 °C.

In turn, `Cc1cccc(C(=O)NCN2CCN(c3ccccn3)CC2)c1` yielded a melting point of 141 to 143 °C.

As for `O=C(Nc1ccc(OCc2ccccc2)cc1)C1CC1`, the melting point came out at 162 °C.

For the compound `CCC(O)C(O)c1ccc(OCc2ccc3ccccc3c2)c(OC)c1` (configuration not stated), the melting point was 120 °C.

In turn, `COCCOc1ccc(CCCOC(=O)NS(=O)(=O)NCCOC(C)C)c(Oc2ncc(Cl)cc2Cl)c1` returned a melting point of 87.5 to 88.4 °C.

Take `CCc1onc(-c2ccccc2)c1C(=O)NCCCN1CCN(c2ccc(F)cc2OCC(F)(F)F)CC1`: the melting point lay in the range of 115 to 117 °C.

For `NC(=O)c1cc(Cl)c(Sc2ccc(Cl)cc2)c(Cl)c1`, the melting point is 171 to 174 °C.

Compound `CCP(CC)c1ccc(Cl)cc1` came in with a melting point of 77 to 79 °C.

The compound `CNC(=O)NC1(C)CCCc2ccccc21` (configuration not stated) showed a melting point of 183 to 186 °C.

For the compound `COc1ccc(CNc2cc3c(Nc4ccc(Cl)c(Br)c4)ncnc3cn2)cc1`, the melting point was 207 to 210 °C.

The compound `CCOc1nn(-c2ccc(C(F)(F)F)cn2)cc1CCOc1ccc(CCC(=O)O)c(OC)c1` came in with a melting point of 147 to 148 °C.

In the case of `CC(C)OC(=O)Nc1ccc(NC(=O)CBr)c([N+](=O)[O-])c1`, the melting point was in the range of 195 to 197 °C.

Compound `COC(=O)c1cc(NC(C)=O)c2cc(Cc3ccc(F)cc3)cnc2c1O` came in with a melting point of 243 to 245 °C.

As to `CCOC(=O)COc1ccc(NC(=O)OCc2ccccc2)cc1`, the melting point fell in the range of 85 to 86 °C.

With `COc1ccc2nc3cc(N4CCN(C)CC4)c(=O)cc-3sc2c1`, the melting point fell in the range of 208 to 209 °C.

In turn, `N#Cc1cnc2cc(-c3cc(CN4CCOCC4)c(CN4CCOCC4)s3)ccc2c1Nc1ccc(Cl)cc1Cl` came in with a melting point of 118 to 125 °C.

Consider `Fc1cccc2sc(C3=CCNCC3)cc12`, for which the melting point was 83 to 86 °C.

In the case of `COC(=O)c1cc(NC2CCOCC2)nc(Cl)n1`, the melting point is 190 to 192 °C.

Compound `C#CCON=C(C)C1CN2CCC1CC2` (configuration not stated) showed a melting point of 56 to 58 °C.

With `Cn1ccc2cc(Nc3cnccc3N)ccc21`, the melting point was in the range of 167 to 169 °C.

As to `CC(C)(C)[Si](OCC1CSC2=C(O1)c1ccccc1C(=O)C2=O)(c1ccccc1)c1ccccc1` (configuration not stated), the melting point lay within 205 to 210 °C.

`Fc1nc(F)c(F)c(N2CCCNCC2)c1F` had a melting point of 58 to 61 °C.

With `c1ccc(-c2nc3ccc(N4CCC(N5CCCC5)CC4)nn3c2-c2ccncc2)cc1`, the melting point is 165 to 166 °C.

On to `O=[N+]([O-])c1ccc(N2CCN3CCC2CC3)nc1`, for which the melting point lay in the range of 143 to 146 °C.

`NC(=O)c1cn2c(ccc3ccccc32)n1` showed a melting point of 270 to 271 °C.

In the case of `CSc1cc(NCc2nc3ccccc3o2)c(=O)[nH]c1C`, the melting point lay in the range of 180 to 181 °C.

Compound `CN1C(=O)C(CCCN2CCN(c3ccc(F)cc3)CC2)Oc2cc3c(cc21)CCCC3` (configuration not stated) gave a melting point of 98 to 98.5 °C.

`Nc1ccc(C(=O)N2CCCCCC2=O)cc1` gave a melting point of 156 to 158 °C.

Consider `CNc1nc(N)nc(-c2cc(Cl)ccc2Cl)n1`, for which the melting point was 205 to 206 °C.

As for `CC(=O)O[C@H]1C[C@@H]2CN(C(=O)c3ccc(NC(=O)c4ccccc4-c4ccccc4)cc3)c3ccccc3CN2C1`, the melting point was in the range of 116 to 118 °C.

In turn, `O=C(c1ccc(OC[C@H](O)CO)cc1)c1ccc([N+](=O)[O-])cc1` had a melting point of 104 to 105 °C.

In turn, `CC1(C(=O)Nc2ccc(OC(=O)Cc3cccs3)c(Cl)c2Cl)CCCCC1` returned a melting point of 58 °C.

Compound `COc1ccc(NS(=O)(=O)c2ccc([N+](=O)[O-])cc2OC)cc1` showed a melting point of 180 to 182 °C.

For the compound `O=[N+]([O-])c1cccc(OCc2ncc3ccccc3n2)c1`, the melting point is 125 to 127 °C.

Consider `Cn1cc(S(N)(=O)=O)c(=O)c2ccccc21`, for which the melting point was in the range of 230 to 231 °C.

As for `CCC(CC)(COc1cc(C)c2nc(C)nn2n1)CS(N)(=O)=O`, the melting point lay within 159 to 160 °C.

For the compound `COC(=O)N1CC(=O)N(C)c2ccc(F)cc21`, the melting point is 206 to 208 °C.

The compound `COc1ccc(-c2nc(CCl)nc3sc(C)c(C)c23)cc1OC` came in with a melting point of 117 to 118 °C.

Compound `Oc1cccc2nc(Cc3ccccc3)[nH]c12` came in with a melting point of 172 to 174 °C.

In turn, `C=CCc1cc(CCC(=O)OCC)ccc1C#CC1(O)CN2CCC1CC2` (configuration not stated) showed a melting point of 55 to 56 °C.

Compound `CCCc1nc2c(N)nc3cc(OCc4ccccc4OC)ccc3c2n1CC(C)C` showed a melting point of 205 to 206 °C.

Turning to `O=C1c2ccccc2-c2nn(CCO)c3ccc(NCCNCCO)c1c23`, the melting point fell in the range of 209 to 211 °C.

For the compound `COc1ccc(-n2c(=O)c3c(c4cccnc42)OCC3)cc1`, the melting point lay in the range of 282 to 284 °C.

Turning to `CCOC(=O)c1cc(Cl)ccc1N`, the melting point worked out at 80 °C.
